Experiments:
[1] = test system: 143B human osteosarcoma cells; test: Tail vein injection of 143B human osteosarcoma cells, mouse model for metastasis; format: in vivo
Method: 5×10^5 143B human osteosarcoma cells stably expressing luciferase were injected into the tail vein of animals 5 mins after IV delivery of PBS or LSALT-peptide. Animals were sacrificed after 3 weeks. Lungs were then harvested, fixed in formalin, and embedded in paraffin. […] Metastatic lesions were visualized by staining human 143B osteosarcoma cells with anti-human nucleolin (brown). […] PBS n=4. LSALT-peptide n=6.
In a similar model, 5×10^5 143B human osteosarcoma cells stably expressing luciferase were injected into the tail vein of animals 5 mins after IV delivery of PBS or LSALT-peptide. Animals were imaged weekly using bioluminescence imaging (Xenogen, IVIS 200).

BALB/c mice = test: LPS intoxication model of sepsis; format: in vivo; conditions: versus control-bacteriophage/LPS and LPS only
Description: An intoxication model of sepsis was used to assess peptide efficacy on sepsis. In intoxication models, mice are challenged with a noninfectious, proinflammatory compound, such as LPS or killed bacteria. In the present study, protocols were used that followed Andonegui G, et al., J Clin Invest. 2009 July; 119(7):1921-30; and Yipp B G, et al. J Immunol. 2002 May 1; 168(9):4650-8.
Briefly, purified LPS isolated from E. Coli was used to initiate endotoxemia response in BALB/c mice 6-8 weeks old. Mice were injected with LSALT bacteriophage that contain lethal amounts of LPS endotoxin.
When the animals started to show signs of distress they were sacrificed by euthanasia. All mice treated in this group (5 out of 5) had to be sacrificed due to a septic response.

[2] = test system: 70 W human melanoma cells; test: Tail vein injection of 70 W human melanoma cells expressing luciferase, lung tumor burden; format: in vivo, mice
Method: FIG. 13A-13F show the tumor burden in lung tissue from mice injected via tail vein with 1×10^6 70 W human melanoma cells expressing luciferase, with or without prior injection of 50 μM or 500 μM LSALT peptide (13A-13C) and representative images of lungs with visible melanotic lung […] in mice injected via tail vein with 1×10^6 70 W human melanoma cells expressing luciferase, with or without prior injection of 50 μM or 500 μM LSALT peptide mice (13D-13F).
FIG. 14A-14D show Xenogen images of lungs from mice injected via tail vein with human melanoma cells expressing luciferase with (14B) and without (14A) pretreatment with LSALT; and Xenogen images of lungs from mice injected treated as described for FIGS. 13A and 13B, and in the presence (14D) and absence (14C) of neutrophil depletion using anti-Ly6G/GRI antibody.
In one treatment study, […] melanoma cells expressing luciferase were injected via tail vein with or without prior injection of 50 μM or 500 μM LSALT peptide.
Animals were treated as above in the absence or presence of Neutrophil depletion using Anti-Ly6G/GR1, and the animals were imaged with the Xenogen light system.

[3] = test system: 4T1 murine breast cancer cells; test: Intrasplenic injection of 4T1 murine breast cancer cells, liver metastasis; format: in vivo, mouse; conditions: 4-week post injection; control phage or LSALT expressing phage
[4] = prior injection of 50 μM or 500 μM, 4 weeks post-injection

Sequence: LSALTPSPSWLKYKAL (listed as Homo sapiens) [LSALT peptide]
- metastatic burden in mouse liver by bioluminescence (FIG. 16) ([1]; IV delivery 5 mins before cells, 3 weeks post injection): reduction in bioluminescence
- number of metastatic lesions in mouse lung (FIG. 15) ([1]; IV delivery 5 mins before cells, 3 weeks, histological sections): reduction in metastatic lesions
- metastatic spread of osteosarcoma cell line ([1]; mouse, in vivo): blocks the metastatic spread of an osteosarcoma cell line to the liver
- neutrophil adhesion in sinusoids / neutrophil recruitment to the liver (FIG. 17A) (BALB/c mice): reduced neutrophil recruitment to the liver
- tumor burden by Xenogen imaging with neutrophil depletion (FIGS. 14C, 14D) ([2]; neutrophil depletion using Anti-Ly6G/GR1): the same result was seen
- tumor burden in the lungs, histology and excised lungs (FIG. 13) [2, 4]: the least tumor burden
- visible melanotic lung nodules (FIG. 13) [2, 4]: least frequently
- tumor burden by Xenogen imaging (FIGS. 14A, 14B) ([2]; without neutrophil depletion): progressively less tumor burden
- FIG. 12 result, printed as number of neutrophils present in liver sinusoid tissue [3]: significantly reduced the number of neutrophils present in liver sinusoid tissue

Reference: patent US11083773B2, “Peptides that block leukocyte recruitment and methods of use” (ARCH CANCER THERAPEUTICS, INC., priority 2014, dated 2021)
